We go through four compounds from ChEMBL document CHEMBL3400129, “Novel hybrid nocodazole analogues as tubulin polymerization inhibitors and their antiproliferative activity” (Bioorg Med Chem Lett, 2015).

Molecules are shown by their SMILES.

Assay [1] deals with Tubulin. Briefly: Inhibition of tubulin polymerization (unknown origin). Format: protein-complex assay, Homo sapiens.
Assay [2] deals with Tubulin (Homo sapiens) (UniProt P68371+Q9H4B7+P0DPH7+P68366+Q13509+Q71U36+P04350+Q3ZCM7+P07437+P68363+Q9BQE3+Q6PEY2+Q13885+Q9BVA1+Q9BUF5). The assay can be described thus: Displacement of [3H]colchicine from tubulin (unknown origin) at 5 uM. It is filed as protein-complex assay.
The subject of assay [3] is A549. Briefly: Cytotoxicity against human A549 cells. Format: functional, cell-based.

On to `COC(=O)Nc1nc2ccc(/C=C\c3cc(OC)c(OC)c(OC)c3)cc2[nH]1`, for which the IC50 (usually the concentration at which inhibition is half-maximal) worked out at 1.6 µM in assay [1] and 12 µM in assay [3]. The inhibition (usually the change of the read-out against control, counted positive when it falls) in assay [2] is 39%.
Regarding `COC(=O)Nc1nc2ccc(C(=O)c3sccc3O)cc2[nH]1`, the IC50 was determined as 2 µM in assay [1] and 6 µM in assay [3]. This compound also showed an inhibition in assay [2] of 56%.
As for `COC(=O)Nc1nc2ccc(C(=O)c3ccc(O)cc3O)cc2[nH]1`, the figures for the IC50 in assay [1] and in assay [3] were more than 20 µM and more than 100 µM, respectively.
Turning to `COC(=O)Nc1nc2ccc(C(=O)c3ccc(OC)cc3O)cc2[nH]1`, the IC50 in assay [1] is 2.2 µM; in assay [3], more than 100 µM. Further, in assay [2], the inhibition was determined as 38%.
